Results from patent publication US20250295649A1, “METHOD FOR PROMOTING ELONGATION OF LONG BONE DURING CHILDHOOD TO ADOLESCENCE BY GPER-1 ACTIVATION VARIANT” (Kaohsiung Medical University, priority 2024, published 2025).

Legend:
[1] = test system: epiphyseal chondrocytes; experiment: BrdU proliferation in ex vivo cultured epiphyseal cartilage of 4-day-old rats; assay type: cell-based; details: for proliferation of epiphyseal chondrocytes (BrdU): ex vivo rat epiphyseal cartilage
Protocol: After taking out the cultured epiphyseal cartilage from 4-day-old rats and culturing them ex vivo, the cartilage tissues are given GPER-1 agonists at concentrations of 0.1, 0.5, 1, and 2 μM to activate the GPER-1 of chondrocytes. Subsequently, the amount of proliferating cells in living cells is detected using Bromodeoxyuridine (5-bromo-2′-deoxyuridine, BrdU).

[2] = test system: mice; experiment: Growth plate cartilage structure in mice, Safranin O staining; assay type: in vivo; details: subcutaneous injection from 2 weeks old
Protocol: From 2 weeks old, mice are administered GPER-1 agonists at concentrations of 10^−8 g/kg, 10^−6 g/kg, and 10^−4 g/kg through subcutaneous injection to activate GPER-1. Safranin O staining is employed to label cartilage tissue for the analysis of growth plate cartilage structure. The growth plate cartilage is categorized into the resting zone (RZ), proliferation zone (PZ), and hypertrophy zone (HZ).

In the case of CC(=O)c1ccc2c(c1)[C@H]1C=CC[C@H]1[C@@H](c1cc3c(cc1Br)OCO3)N2 (racemic) [GPER-1 agonist, (±)-1-[(3aR*,4S*,9bS*)-4-(6-Bromo-1,3-benzodioxol-5-yl)-3a,4,5,9b-tetrahydro-3H-cyclopenta[c]quinolin-8-yl]-ethenone], the “proliferation of rat chondrocytes” value ([1]; concentrations ranging from 0.1 to 1 μM (summary statement)) is reported as “can promote”, the “proliferation of epiphyseal chondrocytes (BrdU)” value ([1]; 0.1 μM) is reported as “significantly promote” and the “proliferation of epiphyseal chondrocytes (BrdU)” value ([1]; 0.5 μM) is reported as “significantly promote”. The “thickness of the proliferative zone of the growth plate” value ([2]; 10^−4 g/kg) was “effectively promote”, the “thickness of the whole growth plate” value ([2]; 10^−4 g/kg) was “effectively promote” and the “thickness of the proliferative zone of the growth plate” value ([2]; 10^−6 g/kg) was “effectively promote”. For the same compound, the “thickness of the whole growth plate” value ([2]; 10^−6 g/kg) was “effectively promote”.
